From ChEMBL document CHEMBL1201862, “PubChem BioAssay data set” (2004)
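Values below derive from 48-hour exposures of cells grown in 96-well plates, with endpoints linearly interpolated between the two concentrations bracketing the appropriate inhibition level. The concentration for 50% growth inhibition is given as GI50.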 Active and inactive are the calls of the source. No stated cut-off is given here; in the data, active = GI50 up to about 1.1 µM and inactive = higher.

What was measured:
Experiment in all cases: inhibition of tumour cell growth, NCI panel, 48 h
HCC 2998 = test system: HCC 2998
TK-10 = test system: TK-10
DU-145 = test system: DU-145
SK-MEL-5 = test system: SK-MEL-5
NCI-H226 = test system: NCI-H226
RPMI-8226 = test system: RPMI-8226
UACC-62 = test system: UACC-62
OVCAR-4 = test system: OVCAR-4
RXF 393 = test system: RXF 393
SNB-19 = test system: SNB-19
A498 = test system: A498
MOLT-4 = test system: MOLT-4
EKVX = test system: EKVX
786-0 = test system: 786-0
COLO 205 = test system: COLO 205
SF-295 = test system: SF-295
OVCAR-3 = test system: OVCAR-3
OVCAR-8 = test system: OVCAR-8
Hs-578T = test system: Hs-578T
MDA-MB-231 = test system: MDA-MB-231

Measured: GI50

O=C1c2ccccc2C(=O)c2c(NC3CCCCC3)ccc(Nc3ccc(S(=O)(=O)O)cc3)c21
inactive: HCC 2998 26.5 µM | TK-10 > 100 µM | DU-145 > 100 µM | SK-MEL-5 63 µM | NCI-H226 > 100 µM | RPMI-8226 45.2 µM | UACC-62 > 100 µM | OVCAR-4 33.9 µM | RXF 393 83.6 µM | SNB-19 84.5 µM | A498 > 100 µM | MOLT-4 34.9 µM | EKVX 17 µM | 786-0 45.7 µM | COLO 205 20.1 µM | SF-295 > 100 µM | OVCAR-3 28.2 µM | OVCAR-8 35.3 µM | Hs-578T > 100 µM | MDA-MB-231 22.5 µM

COC(=O)C1=C(C(=O)OC)SC(=C2S[C@@H]3[C@@H]4C[C@H]([C@@H]3S2)[C@H]2C(=O)OC(=O)[C@@H]42)S1
inactive: HCC 2998 > 100 µM | TK-10 > 100 µM | DU-145 > 100 µM | SK-MEL-5 > 100 µM | NCI-H226 > 100 µM | RPMI-8226 > 100 µM | UACC-62 > 100 µM | OVCAR-4 > 100 µM | RXF 393 > 100 µM | SNB-19 > 100 µM | A498 > 100 µM | MOLT-4 > 100 µM | EKVX > 100 µM | 786-0 > 100 µM | COLO 205 > 100 µM | SF-295 > 100 µM | OVCAR-3 > 100 µM | OVCAR-8 > 100 µM | Hs-578T > 100 µM | MDA-MB-231 > 100 µM

CCCCCCCCCc1c(O)c(O)c(CCCCCCCCC)c(CCCCCCCCC)c1CCCCCCCCC
inactive: HCC 2998 > 100 µM | TK-10 > 100 µM | DU-145 > 100 µM | SK-MEL-5 > 100 µM | NCI-H226 > 100 µM | RPMI-8226 > 100 µM | UACC-62 > 100 µM | OVCAR-4 > 100 µM | RXF 393 > 100 µM | SNB-19 > 100 µM | A498 > 100 µM | MOLT-4 > 100 µM | EKVX > 100 µM | 786-0 > 100 µM | COLO 205 > 100 µM | SF-295 > 100 µM | OVCAR-3 37.9 µM | OVCAR-8 > 100 µM | Hs-578T > 100 µM | MDA-MB-231 > 100 µM

Oc1c2ccccc2c2c3c(cccc13)N=N2 [SP-600125]
inactive: HCC 2998 9.62 µM | TK-10 5.93 µM | DU-145 28.2 µM | SK-MEL-5 14.6 µM | NCI-H226 22.9 µM | RPMI-8226 18.8 µM | UACC-62 14.6 µM | OVCAR-4 31.9 µM | RXF 393 20.7 µM | SNB-19 50 µM | A498 7.03 µM | MOLT-4 20.4 µM | EKVX 20 µM | 786-0 27.1 µM | COLO 205 19.5 µM | SF-295 22.5 µM | OVCAR-3 15.3 µM | OVCAR-8 22 µM | Hs-578T 55.1 µM | MDA-MB-231 65.3 µM

Nc1nc(SCc2ccccc2[N+](=O)[O-])c2[nH]cnc2n1
inactive: HCC 2998 > 41.5 µM | TK-10 > 34.8 µM | DU-145 44.7 µM | SK-MEL-5 18.9 µM | NCI-H226 > 50.9 µM | RPMI-8226 > 47.2 µM | UACC-62 37.3 µM | OVCAR-4 62.2 µM | RXF 393 > 62.8 µM | SNB-19 > 83.2 µM | A498 18.6 µM | MOLT-4 > 100 µM | EKVX > 53.5 µM | 786-0 > 65.2 µM | COLO 205 > 45 µM | SF-295 > 67.6 µM | OVCAR-3 > 70.8 µM | OVCAR-8 > 52.8 µM | Hs-578T 1.93 µM | MDA-MB-231 39.4 µM

CC(C)(C)c1ccc(OCC(=O)O)c(Cl)c1
inactive: HCC 2998 > 100 µM | TK-10 > 100 µM | DU-145 > 100 µM | SK-MEL-5 > 100 µM | NCI-H226 > 100 µM | RPMI-8226 > 100 µM | UACC-62 > 100 µM | OVCAR-4 > 100 µM | RXF 393 > 100 µM | SNB-19 > 100 µM | A498 > 100 µM | MOLT-4 > 100 µM | EKVX > 100 µM | 786-0 > 100 µM | COLO 205 > 100 µM | SF-295 > 100 µM | OVCAR-3 60.4 µM | OVCAR-8 > 100 µM | Hs-578T > 100 µM | MDA-MB-231 > 100 µM

COc1ccc(/N=N/C(=O)NC(CC(C)C)C(N)=O)cc1 (stereo not given)
inactive: HCC 2998 > 31 µM | TK-10 > 31.6 µM | DU-145 49.1 µM | SK-MEL-5 > 62.4 µM | NCI-H226 > 94.4 µM | RPMI-8226 14.8 µM | UACC-62 6.92 µM | OVCAR-4 > 31.6 µM | RXF 393 > 31.6 µM | SNB-19 > 100 µM | A498 > 31.6 µM | MOLT-4 7.74 µM | EKVX > 100 µM | 786-0 > 31.6 µM | COLO 205 15.3 µM | SF-295 5.58 µM | OVCAR-3 > 50 µM | OVCAR-8 36.9 µM | Hs-578T > 100 µM | MDA-MB-231 > 31.6 µM

CN1CCN(C(=O)CCC(=O)Nc2cc3c(c4ccccc24)-c2ccc4ccccc4c2C3)CC1
inactive: HCC 2998 1.37 µM | TK-10 1.73 µM | DU-145 1.77 µM | SK-MEL-5 1.6 µM | NCI-H226 1.76 µM | RPMI-8226 1.96 µM | UACC-62 1.7 µM | OVCAR-4 1.5 µM | RXF 393 1.73 µM | SNB-19 2.14 µM | A498 13.8 µM | MOLT-4 1.77 µM | EKVX 1.67 µM | 786-0 1.69 µM | COLO 205 1.6 µM | SF-295 1.71 µM | OVCAR-3 1.63 µM | OVCAR-8 2.18 µM | Hs-578T 2.63 µM | MDA-MB-231 1.26 µM

N/C(=N\c1ccccc1Cl)c1ccccc1N
inactive: HCC 2998 > 100 µM | TK-10 > 100 µM | DU-145 > 100 µM | SK-MEL-5 > 100 µM | NCI-H226 > 100 µM | RPMI-8226 > 100 µM | UACC-62 > 100 µM | OVCAR-4 > 100 µM | RXF 393 > 100 µM | SNB-19 > 100 µM | A498 > 100 µM | MOLT-4 > 100 µM | EKVX > 100 µM | 786-0 > 100 µM | COLO 205 > 100 µM | SF-295 > 100 µM | OVCAR-3 > 100 µM | OVCAR-8 > 100 µM | Hs-578T > 100 µM | MDA-MB-231 > 100 µM

COC(=O)CC1(O)C(/C=C/c2ccccc2)C(C(=O)OC)C(=O)C(C(=O)OC)C1C(=O)OC (stereo not given)
inactive: HCC 2998 > 100 µM | TK-10 > 100 µM | DU-145 > 100 µM | SK-MEL-5 > 100 µM | NCI-H226 > 100 µM | RPMI-8226 > 100 µM | UACC-62 81.1 µM | OVCAR-4 > 100 µM | RXF 393 > 100 µM | SNB-19 45.6 µM | A498 > 100 µM | MOLT-4 > 100 µM | EKVX > 100 µM | 786-0 > 100 µM | COLO 205 > 100 µM | SF-295 18.5 µM | OVCAR-3 > 100 µM | OVCAR-8 > 100 µM | Hs-578T > 100 µM | MDA-MB-231 > 100 µM
